Measurements taken from publication PMC5291411, “Cytotoxic conjugates of betulinic acid and substituted triazoles prepared by Huisgen Cycloaddition from 30-azidoderivatives” (PLoS ONE, 2017).
pIC50: −log10 of the molar value.

Legend:
Assay type in all cases: cell-based
K562 = test: Cytotoxic MTS assay, K562; conditions: Homo sapiens, 72 h, leukemia
Text: (§1) Cytotoxic activity of all synthesized compounds was investigated in vitro against eight human cancer cell lines and two non-tumor fibroblasts using the standard MTS test (Table 1). The cancer cell lines were derived from T-lymphoblastic leukemia CCRF-CEM, leukemia K562 and their multiresistant counterparts expressing P-glycoprotein, MRP1 and LRP proteins (CEM-DNR, K562-TAX), solid tumors including lung (A549) and colon (HCT116, HCT116p53-/-) carcinomas, osteosarcoma cell line (U2OS), and for comparison, tests were performed on two human non-cancer fibroblast cell lines (BJ, MRC-5).
(§2) Biological assays were performed in concordance with our previous publications [[29], [58]; [60]; [61]]. All cells (if not indicated otherwise) were purchased from the American Tissue Culture Collection (ATCC). The CCRF-CEM line is derived from T lymphoblastic leukemia, evincing high chemosenzitivity, K562 represent cells from an acute myeloid leukemia patient sample with bcr-abl translocation, U2OS line is derived from osteosarcoma, HCT116 is colorectal tumor cell line and its p53 gene knock-down counterpart (HCT116p53-/-, Horizon Discovery Ltd, UK) is a model of human cancers with p53 mutation frequently associated with poor prognosis, A549 line is lung adenocarcinoma. The daunorubicin resistant subline of CCRF-CEM cells (CEM-DNR bulk) and paclitaxel resistant subline K562-TAX were selected in our laboratory by the cultivation of maternal cell lines in increasing concentrations of daunorubicine or paclitaxel, respectively. The CEM-DNR bulk cells overexpress MRP-1 and P-glycoprotein protein, while K562-TAX cells overexpress P-glycoprotein only. Both proteins belong to the family of ABC transporters and are involved in the primary and/or acquired multidrug resistance phenomenon. MRC-5 and BJ cell lines were used as a non-tumor control and represent human fibroblasts. The cells were maintained in nunc/corning 80 cm^2 plastic tissue culture flasks and cultured in cell culture medium according to ATCC or Horizon recommendations (DMEM/RPMI 1640 with 5 g/L glucose, 2 mM glutamine, 100 U/mL penicillin, […] streptomycin, 10% fetal calf serum, and NaHCO3).
(§3) MTS assay was performed at Institute of Molecular and Translational Medicine by robotic platform (HighResBiosolutions). Cell suspensions were prepared and diluted according to the particular cell type and the expected target cell density (25000–35000 cells/mL based on cell growth characteristics). Cells were added by automatic pipetor (30 μL) into 384 well microtiter plates. All tested compounds were dissolved in 100% DMSO and four-fold dilutions of the intended test concentration were added in 0.15 μL aliquots at time zero to the microtiter plate wells by the echoacustic non-contact liquid handler Echo550 (Labcyte). The experiments were performed in technical duplicates and three biological replicates at least. The cells were incubated with the tested compounds for 72 h at 37°C, in a 5% CO2 atmosphere at 100% humidity. At the end of the incubation period, the cells were assayed by using the MTS test. Aliquots (5 μL) of the MTS stock solution were pipetted into each well and incubated for additional 1–4 h. After this incubation period, the optical density (OD) was measured at 490 nm with an Envision reader (Perkin Elmer). Tumor cell survival (TCS) was calculated by using the following equation: TCS = (ODdrug-exposed well/mean ODcontrol wells) × 100%. The IC50 value, the drug concentration that is lethal to 50% of the tumor cells, was calculated from the appropriate dose-response curves in Dotmatics software.

HCT116 = test: Cytotoxic MTS assay, HCT116; conditions: Homo sapiens, HCT-116, 72 h, colorectal tumor
Text: as §1, §2, §3

A549 = test: Cytotoxic MTS assay, A549; conditions: Homo sapiens, 72 h, lung adenocarcinoma
Text: as §1, §2, §3

MRC-5 = test: Cytotoxic MTS assay, MRC-5 fibroblasts; conditions: Homo sapiens, MRC5, 72 h, non-tumor fibroblasts
Text: as §1, §2, §3

U2OS = test: Cytotoxic MTS assay, U2OS; conditions: Homo sapiens, 72 h, osteosarcoma
Text: as §1, §2, §3

CCRF-CEM = test: Cytotoxic MTS assay, CCRF-CEM; conditions: Homo sapiens, 72 h, T-lymphoblastic leukemia
Text: as §1, §2, §3

K562-TAX = test: Cytotoxic MTS assay, K562-TAX; conditions: Homo sapiens, 72 h, paclitaxel resistant subline of K562
Text: as §1, §2, §3

CEM-DNR = test: Cytotoxic MTS assay, CEM-DNR; conditions: Homo sapiens, 72 h, daunorubicin resistant subline of CCRF-CEM
Text: as §1, §2, §3

BJ = test: Cytotoxic MTS assay, BJ fibroblasts; conditions: Homo sapiens, 72 h, non-tumor fibroblasts
Text: as §1, §2, §3

HCT116p53-/- = test: Cytotoxic MTS assay, HCT116p53-/-; conditions: Homo sapiens, 72 h, p53 knock-down colorectal tumor
Text: as §1, §2, §3

| SMILES | pIC50 (K562) | pIC50 (HCT116) | pIC50 (A549) | pIC50 (MRC-5) | pIC50 (U2OS) | pIC50 (CCRF-CEM) | pIC50 (K562-TAX) | pIC50 (CEM-DNR) | pIC50 (BJ) | pIC50 (HCT116p53-/-) |
| --- | --- | --- | --- | --- | --- | --- | --- | --- | --- | --- |
| C=C(Cn1cc(-c2ccccc2)nn1)[C@@H]1CC[C@]2(C(=O)O)CC[C@]3(C)C(CCC4[C@@]5(C)CC[C@H](OC(C)=O)C(C)(C)C5CC[C@]43C)C12 (stereo partly drawn) [Compound 9a] | 4.82 | 4.60 | 4.63 | 4.49 | 4.61 | 4.87 | 4.72 | 4.71 | < 4.30 | 4.51 |
| C=C(Cn1cc(C2CCCC2)nn1)[C@@H]1CC[C@]2(C(=O)O)CC[C@]3(C)C(CCC4[C@@]5(C)CC[C@H](OC(C)=O)C(C)(C)C5CC[C@]43C)C12 (stereo partly drawn) [Compound 9g] | 4.36 | 4.42 | < 4.30 | < 4.30 | 4.36 | 4.58 | 4.54 | 4.51 | < 4.30 | 4.32 |
| C=C(Cn1cc(C2CCCC2)nn1)[C@@H]1CC[C@]2(C(=O)O)CC[C@]3(C)C(CCC4[C@@]5(C)CC[C@H](O)C(C)(C)C5CC[C@]43C)C12 (stereo partly drawn) [Compound 11g] | < 4.30 | 4.47 | < 4.30 | < 4.30 | < 4.30 | 4.78 | 4.63 | 4.42 | < 4.30 | < 4.30 |
| C=C(Cn1cc(-c2ccc(N(C)C)cc2)nn1)[C@@H]1CC[C@]2(C(=O)O)CC[C@]3(C)C(CCC4[C@@]5(C)CC[C@H](OC(C)=O)C(C)(C)C5CC[C@]43C)C12 (stereo partly drawn) [Compound 9e] | 4.45 | 4.48 | 4.58 | 4.52 | 4.51 | 4.71 | 4.52 | 4.53 | 4.45 | 4.48 |
| C=C(Cn1cc(-c2ccccc2)nn1)[C@@H]1CC[C@]2(C(=O)O)CC[C@]3(C)C(CCC4[C@@]5(C)CC[C@H](O)C(C)(C)C5CC[C@]43C)C12 (stereo partly drawn) [Compound 11a] | < 4.30 | < 4.30 | < 4.30 | < 4.30 | < 4.30 | 4.78 | 4.63 | 4.62 | < 4.30 | < 4.30 |
| C=C(C)[C@@H]1CC[C@]2(C(=O)O)CC[C@]3(C)[C@H](CC[C@@H]4[C@@]5(C)CC[C@H](O)C(C)(C)[C@@H]5CC[C@]43C)[C@@H]12 [Compound 1, betulinic acid] | 4.40 | 4.42 | 4.36 | 4.48 | < 4.30 | 4.34 | 4.37 | 4.34 | 4.42 | < 4.30 |
| C=C(CN=[N+]=[N-])[C@@H]1CC[C@]2(C(=O)O)CC[C@]3(C)C(CCC4[C@@]5(C)CC[C@H](O)C(C)(C)C5CC[C@]43C)C12 (stereo partly drawn) [Compound 8, 30-azidobetulinic acid] | 4.76 | 4.59 | 4.64 | 4.72 | 4.60 | 4.66 | 4.62 | 4.59 | 4.47 | 4.62 |
| C=C(Cn1cc(-c2ccccn2)nn1)[C@@H]1CC[C@]2(C(=O)O)CC[C@]3(C)C(CCC4[C@@]5(C)CC[C@H](O)C(C)(C)C5CC[C@]43C)C12 (stereo partly drawn) [Compound 11c] | < 4.30 | < 4.30 | < 4.30 | < 4.30 | < 4.30 | 4.84 | 5.14 | 5.07 | < 4.30 | < 4.30 |
| C=C(Cn1cc(CN)nn1)[C@@H]1CC[C@]2(C(=O)O)CC[C@]3(C)C(CCC4[C@@]5(C)CC[C@H](OC(C)=O)C(C)(C)C5CC[C@]43C)C12 (stereo partly drawn) [Compound 9h] | < 4.30 | 4.49 | 4.52 | < 4.30 | 4.51 | 4.69 | < 4.30 | 4.55 | < 4.30 | < 4.30 |
| C=C(Cn1cc(-c2ccc(C(C)(C)C)cc2)nn1)[C@@H]1CC[C@]2(C(=O)O)CC[C@]3(C)C(CCC4[C@@]5(C)CC[C@H](O)C(C)(C)C5CC[C@]43C)C12 (stereo partly drawn) [Compound 11f] | < 4.30 | 4.44 | < 4.30 | < 4.30 | < 4.30 | < 4.30 | 4.80 | 4.86 | < 4.30 | < 4.30 |
| C=C(Cn1cc(-c2ccc(C(C)(C)C)cc2)nn1)[C@@H]1CC[C@]2(C(=O)O)CC[C@]3(C)C(CCC4[C@@]5(C)CC[C@H](OC(C)=O)C(C)(C)C5CC[C@]43C)C12 (stereo partly drawn) [Compound 9f] | 4.81 | 4.38 | 4.35 | < 4.30 | 4.34 | 4.46 | 4.63 | 4.82 | < 4.30 | 4.32 |
| C=C(Cn1cc(-c2cccnc2)nn1)[C@@H]1CC[C@]2(C(=O)O)CC[C@]3(C)C(CCC4[C@@]5(C)CC[C@H](OC(C)=O)C(C)(C)C5CC[C@]43C)C12 (stereo partly drawn) [Compound 9d] | 4.88 | 4.72 | 4.95 | 4.55 | 4.76 | 4.83 | 4.95 | 4.92 | 4.52 | 4.73 |
